Measured values published in US8748415B2 (priority 2011, dated 2014).

The molecules below were run on recombinant NL4-3 virus (Renilla luciferase in nef, Gag P373S) (assay: HIV cell culture assay (luciferase activity in MT-2 cells infected with NLRluc recombinant virus)). Settings: NL43, MT-2 cells infected 4-5 days with NLRluc recombinant virus, class symbol.
Assay type: cell-based
Method in brief: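 MT-2 cells in RPMI/10% FBS were infected with recombinant NL4-3 (NLRluc), produced by 293T transfection and titered in MT-2 by luciferase. Serial inhibitor dilutions were present throughout a 4–5 day infection. Antiviral activity was quantified as Renilla luciferase signal via a modified Dual Luciferase read.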
In the case of `C=C(C)[C@@H]1CC[C@]2(CNCCC(=O)N3CCC(F)(F)C3)CC[C@]3(C)[C@H](CC[C@@H]4[C@@]5(C)CC=C(c6ccc(C(=O)O)cc6)C(C)(C)[C@@H]5CC[C@]43C)[C@@H]12` [Example 103, 4-((1R,3aS,5aR,5bR,7aR,11aS,11bR,13aR,13bR)-3a-((3-(3,3-difluoropyrrolidin-1-yl)-3-oxopropylamino)methyl)-5a,5b,8,8,11a-pentamethyl-1-(prop-1-en-2-yl)-2,3,3a,4,5,5a,5b,6,7,7a,8,11,11a,11b,12,13,13a,13b-octadecahydro-1H-cyclopenta[a]chrysen-9-yl)benzoic acid], the EC50 is reported as < 100 nM. For `C=C(C)[C@@H]1CC[C@]2(CNCC(=O)N(C)C)CC[C@]3(C)[C@H](CC[C@@H]4[C@@]5(C)CC=C(c6ccc(C(=O)O)cc6)C(C)(C)[C@@H]5CC[C@]43C)[C@@H]12` [Example 39, 4-((1R,3aS,5aR,5bR,7aR,11aS,11bR,13aR,13bR)-3a-((2-(dimethylamino)-2-oxoethylamino)methyl)-5a,5b,8,8,11a-pentamethyl-1-(prop-1-en-2-yl)-2,3,3a,4,5,5a,5b,6,7,7a,8,11,11a,11b,12,13,13a,13b-octadecahydro-1H-cyclopenta[a]chrysen-9-yl)benzoic acid], the EC50 was < 100 nM. For `C=C(C)[C@@H]1CC[C@]2(CNCCC(=O)NC)CC[C@]3(C)[C@H](CC[C@@H]4[C@@]5(C)CC=C(c6ccc(C(=O)O)cc6)C(C)(C)[C@@H]5CC[C@]43C)[C@@H]12` [Example 127, 4-((1R,3aS,5aR,5bR,7aR,11aS,11bR,13aR,13bR)-5a,5b,8,8,11a-pentamethyl-3a-((3-(methylamino)-3-oxopropylamino)methyl)-1-(prop-1-en-2-yl)-2,3,3a,4,5,5a,5b,6,7,7a,8,11,11a,11b,12,13,13a,13b-octadecahydro-1H-cyclopenta[a]chrysen-9-yl)benzoic acid], the EC50 was < 100 nM. `C=C(C)[C@@H]1CC[C@]2(CNCCC(=O)N3C[C@H]4CC[C@@H](C3)N4C)CC[C@]3(C)[C@H](CC[C@@H]4[C@@]5(C)CC=C(c6ccc(C(=O)O)cc6)C(C)(C)[C@@H]5CC[C@]43C)[C@@H]12` [Example 121, 4-((1R,3aS,5aR,5bR,7aR,11aS,11bR,13aR,13bR)-5a,5b,8,8,11a-pentamethyl-3a-((3-((1R,5S)-8-methyl-3,8-diazabicyclo[3.2.1]octan-3-yl)-3-oxopropylamino)methyl)-1-(prop-1-en-2-yl)-2,3,3a,4,5,5a,5b,6,7,7a,8,11,11a,11b,12,13,13a,13b-octadecahydro-1H-cyclopenta[a]chrysen-9-yl)benzoic acid] was tested, and the EC50 was < 100 nM. In the case of `C=C(C)[C@@H]1CC[C@]2(CNCCCN)CC[C@]3(C)[C@H](CC[C@@H]4[C@@]5(C)CC=C(c6ccc(C(=O)O)cc6)C(C)(C)[C@@H]5CC[C@]43C)[C@@H]12` [Example 67, 4-((1R,3aS,5aR,5bR,7aR,11aS,11bR,13aR,13bR)-3a-((3-aminopropylamino)methyl)-5a,5b,8,8,11a-pentamethyl-1-(prop-1-en-2-yl)-2,3,3a,4,5,5a,5b,6,7,7a,8,11,11a,11b,12,13,13a,13b-octadecahydro-1H-cyclopenta[a]chrysen-9-yl)benzoic acid], the EC50 is reported as < 100 nM. For `C=C(C)[C@@H]1CC[C@]2(CNC(=O)NCCN3CCS(=O)(=O)CC3)CC[C@]3(C)[C@H](CC[C@@H]4[C@@]5(C)CC=C(c6ccc(C(=O)O)cc6)C(C)(C)[C@@H]5CC[C@]43C)[C@@H]12` [Example 161, 4-((1R,3aS,5aR,5bR,7aR,11aS,11bR,13aR,13bR)-3a-((((2-(1,1-dioxido-4-thiomorpholinyl)ethyl)carbamoyl)amino)methyl)-1-isopropenyl-5a,5b,8,8,11a-pentamethyl-2,3,3a,4,5,5a,5b,6,7,7a,8,11,11a,11b,12,13,13a,13b-octadecahydro-1H-cyclopenta[a]chrysen-9-yl)benzoic acid], the EC50 was < 100 nM.
